Assay results: US4383114A, “Adenosine deaminase resistant antiviral purine arabinonucleosides” (priority 1981, dated 1983)
Converted amounts (≈) assume the structure as drawn. “And” between values parts separate entries of the source, which are not always exact repeats. Identical values can stand only once.

Assays:
[1] = toxicity in uninfected (toxicity control) or treated mice; assay type: in vivo, Random-bred Swiss mice, female; settings: for Avg. Body Wt. on Day 0 / Avg. Body Wt. on Day 7 / Avg. Body Wt. on Day 14 / Avg. Body Wt. on Day 21 / Mortality: No. Dead/Total No. of Mice / mortality at 504 h: uninfected toxicity controls; for mortality at 504 h: mouse, in vivo, ip
Method: River Breeding Laboratories, Inc.
cellulose (HPC) at four different
centrations so that a single daily
volume of 0.01 ml/gm of body
The drugs were administered once
for 7 days beginning 4 hours after […]

[2] = tested on: adenosine deaminase; settings: background statement; cited from earlier work
[3] = tested on: calf intestinal adenosine deaminase (type III, Sigma); test: resistance to deamination by adenosine deaminase (Example 11); settings: for deamination by adenosine deaminase: conditions under which ara-A is completely deaminated
[4] = tested on: calf intestinal mucosa adenosine deaminase (Sigma Chemical Company); test: adenosine deaminase activity on Ara-A, Cyclaradine and Aristeromycin (Example 14); assay type: in vitro ADME; settings: 1×10^-4 M, pH 7.5, 17.75 units/ml enzyme
Excerpt: The deaminated products were further identified by thin-layer chromatography using authentic samples for reference.

[5] = cytotoxicity, growing P-388 mouse lymphoid leukemia cells in presence of drug; settings: p-388 cells
[6] = tested on: adenosine deaminase; test: inhibition of enzymatic deamination of ara-A or adenosine; assay type: biochemical, calf; settings: substrates ara-A or adenosine
[7] = tested on: herpes simplex virus (HSV) type 1 (strain HF); assay type: cell-based, herpes simplex virus type 1
[8] = tested on: HSV and VV; test: organism not typed; assay type: cell-based
[9] = tested on: vaccinia virus (VV) (Strain Lederle Chorioallantoic); test: microbe, parasite or virus in culture; assay type: cell-based

Nc1ncnc2c1ncn2[C@@H]1O[C@H](CO)[C@@H](O)[C@@H]1O [ara-A, reference compound]
mortality and weight loss ([1]; 755.3 mg/kg/day, qd 1-7): Significant mortality and severe weight loss | Avg. Body Wt. on Day 0 ([1]; Ara-A 125 mg/kg/day): 21.7 gm | Avg. Body Wt. on Day 7 ([1]; Ara-A 125 mg/kg/day): 25.4 gm | Avg. Body Wt. on Day 14 ([1]; Ara-A 125 mg/kg/day): 27.3 gm | Avg. Body Wt. on Day 21 ([1]; Ara-A 125 mg/kg/day): 29.5 gm | Mortality: No. Dead/Total No. of Mice ([1]; Ara-A 125 mg/kg/day): 0/10 | Avg. Body Wt. on Day 0 ([1]; Ara-A 250 mg/kg/day): 21.7 gm | Avg. Body Wt. on Day 7 ([1]; Ara-A 250 mg/kg/day): 25.1 gm | Avg. Body Wt. on Day 14 ([1]; Ara-A 250 mg/kg/day): 26.6 gm | Avg. Body Wt. on Day 21 ([1]; Ara-A 250 mg/kg/day): 29.1 gm | Mortality: No. Dead/Total No. of Mice ([1]; Ara-A 250 mg/kg/day): 0/10 | toxicity of dose levels ([1]; ara-A 125 to 250 mg/kg/day, qd 1-7): non-toxic | mortality at 504 h ([1]; Ara-A 125 mg/kg/day): 0% | mortality at 504 h ([1]; Ara-A 250 mg/kg/day): 0% | approx. LD10 ([1]; qd 1-7 schedule, mice): ~600 mg/kg/day | deamination by adenosine deaminase [2]: rapidly deaminated | deamination rate [3]: 1 μmole/min/unit of enzyme | deamination by adenosine deaminase [3]: completely deaminated | conversion to deaminated product ([4]; 2 hours, 25° C): complete conversion | CC50 [5]: 10 µM

Nc1ncnc2c1ncn2[C@@H]1C[C@H](CO)[C@@H](O)[C@H]1O [Aristeromycin]
conversion to deaminated product ([4]; 2 hours, 25° C): complete conversion

Nc1ncnc2c1ncn2[C@@H]1C[C@H](CO)[C@@H](O)[C@@H]1O (relative stereo) [cyclaradine, 9-[α-(2α,3β-Dihydroxy-4α(hydroxymethyl)cyclopentyl)]adenine]
weight loss or apparent toxicity ([1]; 750 mg/kg/day (equimolar to ara-A 755.3 mg/kg/day)): no significant weight loss or apparent toxicity | lethal toxicity for uninfected animals ([1]; 900 mg/kg/day, qd 1-7, uninfected): apparently not lethally toxic | Avg. Body Wt. on Day 0 ([1]; C-Ara-A 112.5 mg/kg/day): 21.8 gm | Avg. Body Wt. on Day 7 ([1]; C-Ara-A 112.5 mg/kg/day): 24.5 gm | Avg. Body Wt. on Day 14 ([1]; C-Ara-A 112.5 mg/kg/day): 26.5 gm | Avg. Body Wt. on Day 21 ([1]; C-Ara-A 112.5 mg/kg/day): 28.5 gm | Mortality: No. Dead/Total No. of Mice ([1]; C-Ara-A 112.5 mg/kg/day): 0/5 | Avg. Body Wt. on Day 0 ([1]; C-Ara-A 225 mg/kg/day): 21.8 gm | Avg. Body Wt. on Day 7 ([1]; C-Ara-A 225 mg/kg/day): 24.4 gm | Avg. Body Wt. on Day 14 ([1]; C-Ara-A 225 mg/kg/day): 26.8 gm | Avg. Body Wt. on Day 21 ([1]; C-Ara-A 225 mg/kg/day): 29.3 gm | Mortality: No. Dead/Total No. of Mice ([1]; C-Ara-A 225 mg/kg/day): 0/5 | Avg. Body Wt. on Day 0 ([1]; C-Ara-A 450 mg/kg/day): 21.6 gm | Avg. Body Wt. on Day 7 ([1]; C-Ara-A 450 mg/kg/day): 22.6 gm | Avg. Body Wt. on Day 14 ([1]; C-Ara-A 450 mg/kg/day): 25.9 gm | Avg. Body Wt. on Day 21 ([1]; C-Ara-A 450 mg/kg/day): 28.3 gm | Mortality: No. Dead/Total No. of Mice ([1]; C-Ara-A 450 mg/kg/day): 0/5 | Avg. Body Wt. on Day 0 ([1]; C-Ara-A 900 mg/kg/day): 21.8 gm | Avg. Body Wt. on Day 7 ([1]; C-Ara-A 900 mg/kg/day): 22.5 gm | Avg. Body Wt. on Day 14 ([1]; C-Ara-A 900 mg/kg/day): 25.3 gm | Avg. Body Wt. on Day 21 ([1]; C-Ara-A 900 mg/kg/day): 28 gm | Mortality: No. Dead/Total No. of Mice ([1]; C-Ara-A 900 mg/kg/day): 0/5 | toxicity of dose levels ([1]; cyclaradine 112.5 to 450 mg/kg/day, qd 1-7): non-toxic | tolerability compared with ara-A ([1]; higher dose levels, mice): obviously better tolerated than ara-A | mortality at 504 h ([1]; C-Ara-A 112.5 mg/kg/day): 0% | mortality at 504 h ([1]; C-Ara-A 225 mg/kg/day): 0% | mortality at 504 h ([1]; C-Ara-A 450 mg/kg/day): 0% | mortality at 504 h ([1]; C-Ara-A 900 mg/kg/day): 0% | inhibition of enzymatic deamination [6]: did not inhibit | Virus Rating (VR) [7]: 2.2 and 3.5 | antiviral activity against HSV and VV [8]: highly significant antiviral activity | EC50 ([8]; read-out: approximate MED50): ~9 µg/mL (≈ 33.9 µM) | deamination by adenosine deaminase [3]: no detectable deamination | conversion to deaminated product ([4]; overnight incubation): no conversion to deaminated product was detected | EC50 ([9]; Orthopoxvirus vaccinia, HEp-2, read-out: MED50 (minimum drug dose required for 50% inhibition of virus-induced cpe)): 9 µg/mL (≈ 33.9 µM) | Virus Rating (VR) ([9]; vaccinia virus, HEp-2 cells, VR ≥ 1.0 definite, 0.5-0.9 marginal to moderate, < 0.5 no apparent antiviral activity): 1.5 and 1.7 | CC50 [5]: 10 µM
